For 13 compounds, IC50 and Ki results are on record in ChEMBL document CHEMBL1909046, “DrugMatrix in vitro pharmacology data”.

pIC50: −log10 of the molar value.

Test [1] has as its target T1, Alpha-1D adrenergic receptor (Homo sapiens, UniProt P25100). Further: in other assays of this panel Not Active means under 50% inhibition at 10 µM.
T1 sequence (P25100 whole entry): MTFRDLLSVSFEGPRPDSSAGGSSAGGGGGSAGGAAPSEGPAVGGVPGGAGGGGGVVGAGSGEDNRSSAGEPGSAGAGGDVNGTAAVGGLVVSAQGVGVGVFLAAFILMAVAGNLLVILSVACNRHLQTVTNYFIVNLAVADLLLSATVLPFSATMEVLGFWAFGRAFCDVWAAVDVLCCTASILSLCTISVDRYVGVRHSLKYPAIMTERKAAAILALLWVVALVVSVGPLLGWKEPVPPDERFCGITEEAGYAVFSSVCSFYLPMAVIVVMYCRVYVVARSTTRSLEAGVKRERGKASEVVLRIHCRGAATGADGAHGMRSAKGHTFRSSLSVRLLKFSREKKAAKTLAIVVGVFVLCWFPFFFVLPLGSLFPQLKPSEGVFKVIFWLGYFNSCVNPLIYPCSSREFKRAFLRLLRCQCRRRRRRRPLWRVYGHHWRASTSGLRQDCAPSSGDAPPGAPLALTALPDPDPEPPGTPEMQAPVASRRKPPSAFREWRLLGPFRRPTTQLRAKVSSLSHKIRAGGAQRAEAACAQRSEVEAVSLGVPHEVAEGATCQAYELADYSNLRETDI
The class given is cell membranes, HEK293, Membrane. The conditions noted are these: hek293.

In test [2] the target is Aldo-keto reductase family 1 member B1 (Rattus norvegicus, UniProt P07943). Put plainly: biochemical. In kind it is tissue-based, Lens of camera-type eye.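 Further: inhibition of aldose reductase enzyme activity, measured with DL-glyceraldehyde as the substrate; in other assays of this panel Not Active means under 50% inhibition at 10 µM.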
Test [3] in a line: DRUGMATRIX: ATPase, Na+/K+ enzyme inhibition (substrate: ATP). In kind it is tissue-based, Sus scrofa, Heart. The conditions noted are these: Not Active = under 50% inhibition at 10 µM.
A short description of test [4]: DRUGMATRIX: Calcium Channel Type L, Dihydropyridine radioligand binding (ligand: [3H] Nitrendipine). The note with it: Not Active = under 50% inhibition at 10 µM. The class given is cell membranes, Rattus norvegicus, Wistar, Cerebral cortex, Membrane.
Test [5] in a line: DRUGMATRIX: Tumor Necrosis Factor (TNF), Non-Selective radioligand binding (ligand: [125I] TNF-alpha). The note with it: u-937; Not Active = under 50% inhibition at 10 µM. The class given is cell membranes, Membrane.
In test [6] the target is T2, Vasoactive intestinal polypeptide receptor 1 (Homo sapiens, UniProt P32241). Further: in other assays of this panel Not Active means under 50% inhibition at 10 µM.
T2 sequence (P32241 whole entry): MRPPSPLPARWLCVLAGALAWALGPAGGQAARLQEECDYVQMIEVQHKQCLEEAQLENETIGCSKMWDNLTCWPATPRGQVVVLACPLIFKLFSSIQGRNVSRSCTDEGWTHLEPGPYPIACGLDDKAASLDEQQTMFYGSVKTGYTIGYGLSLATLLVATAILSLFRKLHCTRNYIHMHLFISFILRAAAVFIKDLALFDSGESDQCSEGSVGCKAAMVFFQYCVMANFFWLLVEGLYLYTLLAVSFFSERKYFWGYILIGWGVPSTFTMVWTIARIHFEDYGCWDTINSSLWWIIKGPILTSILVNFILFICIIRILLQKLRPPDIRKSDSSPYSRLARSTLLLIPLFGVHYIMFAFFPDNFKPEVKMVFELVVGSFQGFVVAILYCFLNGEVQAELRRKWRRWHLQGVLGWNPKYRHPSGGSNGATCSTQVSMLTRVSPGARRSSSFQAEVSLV
The class given is cell membranes, Membrane. The note with it: ht-29.

Test [7] in a line: DRUGMATRIX: Glutamate, Kainate radioligand binding (ligand: [3H] Kainic acid). In kind it is cell membranes, Rattus norvegicus, Wistar, Brain, Membrane. The conditions noted are these: Not Active = under 50% inhibition at 10 µM.

With `CN(C)/N=N/c1[nH]cnc1C(N)=O` [DACARBAZINE], the IC50 entry in test [1], in test [2], in test [3], in test [4], in test [5] and in test [6] was “Not Active” each time. In addition, in test [7], the IC50 result is “Not Active”. Also, the Ki result in test [3], in test [4], in test [5] and in test [7] was “Not Active” each time.

Regarding `COc1ccc2c(c1)[C@]13CCCC[C@@H]1[C@H](C2)N(C)CC3` [DEXTROMETHORPHAN], the IC50 entry in test [1], in test [2], in test [3], in test [4], in test [5] and in test [6] was “Not Active” in each case. For the same compound, the IC50 result in test [7] is recorded as “Not Active”. Also, the Ki result in test [3], in test [4], in test [5] and in test [7] was “Not Active” in each case.

As to `CC(=O)Nc1c(I)c(NC(C)=O)c(I)c(C(=O)O)c1I` [DIATRIZOIC ACID], the IC50 entry in test [1], in test [2], in test [3], in test [4], in test [5] and in test [6] was “Not Active” throughout. For the same compound, in test [7], the IC50 result was “Not Active”. Also, the Ki result in test [3], in test [4], in test [5] and in test [7] was “Not Active” in each case.

`COP(=O)(OC)OC=C(Cl)Cl` [DICHLORVOS]: the IC50 result in test [1], in test [2], in test [3], in test [4], in test [5] and in test [6] was “Not Active” in each case. In addition, the IC50 result in test [7] was “Not Active”. Moreover, the Ki result in test [3], in test [4], in test [5] and in test [7] was “Not Active” throughout.

Take `O=C(O)Cc1ccccc1Nc1c(Cl)cccc1Cl` [DICLOFENAC]: the IC50 entry in test [1], in test [2], in test [3], in test [4], in test [5] and in test [6] was “Not Active” each time. Further, the IC50 result in test [7] is reported as “Not Active”. Besides, the Ki entry in test [3], in test [4], in test [5] and in test [7] was “Not Active” throughout.

A word on the pIC50: it is the negative decadic logarithm of the IC50, by convention in mol/L. Consider `C[C@H]1O[C@@H](O[C@H]2[C@@H](O)C[C@H](O[C@H]3[C@@H](O)C[C@H](O[C@H]4CC[C@@]5(C)[C@H](CC[C@@H]6[C@@H]5CC[C@]5(C)[C@@H](C7=CC(=O)OC7)CC[C@]65O)C4)O[C@@H]3C)O[C@@H]2C)C[C@H](O)[C@@H]1O` [DIGITOXIN], for which the IC50 entry in test [1], in test [2], in test [4], in test [5], in test [6] and in test [7] was “Not Active” in each case. In addition, the pIC50 in test [3] (read-out: IC50) was 6.65. The Ki entry in test [4], in test [5] and in test [7] was “Not Active” in each case.

Take `CCN1CC(CCN2CCOCC2)C(c2ccccc2)(c2ccccc2)C1=O` (configuration not stated) [DOXAPRAM]: the IC50 entry in test [1], in test [2], in test [3], in test [4], in test [5] and in test [6] was “Not Active” each time. Further, the IC50 result in test [7] is “Not Active”. The Ki entry in test [3], in test [4], in test [5] and in test [7] was “Not Active” each time.

For `Cn1c(=O)c2c(ncn2CC2OCCO2)n(C)c1=O` [DOXOFYLLINE], the IC50 result in test [1], in test [2], in test [3], in test [4], in test [5] and in test [6] was “Not Active” throughout. Moreover, the IC50 entry in test [7] is given as “Not Active”. Also, the Ki entry in test [3], in test [4], in test [5] and in test [7] was “Not Active” throughout.

As for `COc1cccc2c1C(=O)c1c(O)c3c(c(O)c1C2=O)C[C@@](O)(C(=O)CO)C[C@@H]3O[C@H]1C[C@H](N)[C@H](O)[C@H](C)O1` [DOXORUBICIN], the IC50 entry in test [1], in test [2], in test [3], in test [4], in test [5] and in test [6] was “Not Active” each time. The IC50 result in test [7] is on record as “Not Active”. Moreover, the Ki result in test [3], in test [4], in test [5] and in test [7] was “Not Active” in each case.

As for `COc1cccc2c1C(=O)c1c(O)c3c(c(O)c1C2=O)C[C@@](O)(C(=O)CO)C[C@@H]3O[C@H]1C[C@H](N)[C@@H](O)[C@H](C)O1` [EPIRUBICIN], the IC50 result in test [1], in test [2], in test [3], in test [4], in test [5] and in test [6] was “Not Active” in each case. Also, the IC50 entry in test [7] was “Not Active”. Moreover, the Ki result in test [3], in test [4], in test [5] and in test [7] was “Not Active” each time.

On to `C[C@]12CC[C@@H]3c4ccc(OC(=O)c5ccccc5)cc4CC[C@H]3[C@@H]1CC[C@@H]2O` [ESTRADIOL BENZOATE], for which the IC50 entry in test [1], in test [2], in test [3], in test [4], in test [5] and in test [6] was “Not Active” each time. Further, the IC50 result in test [7] is listed as “Not Active”. For the same compound, the Ki entry in test [3], in test [4], in test [5] and in test [7] was “Not Active” throughout.

`C[C@]12CC[C@@H]3c4ccc(O)cc4CC[C@H]3[C@@H]1CC[C@@H]2O` [ESTRADIOL]: the IC50 entry in test [1], in test [2], in test [3], in test [4], in test [5] and in test [6] was “Not Active” each time. In test [7], the IC50 result was “Not Active”. In addition, the Ki result in test [3], in test [4], in test [5] and in test [7] was “Not Active” each time.

With `CC[C@@H](CO)NCCN[C@@H](CC)CO` [ETHAMBUTOL], the IC50 entry in test [1], in test [2], in test [3], in test [4], in test [5] and in test [6] was “Not Active” throughout. Besides, the IC50 result in test [7] is reported as “Not Active”. Further, the Ki result in test [3], in test [4], in test [5] and in test [7] was “Not Active” throughout.
